From patent US8216550B2, “Luciferins” (University of Massachusetts, priority 2007, dated 2012)

tested on: Firefly luciferase; test: not given; conditions: amino-luciferin as substrate, literature value; cited from earlier work

| Compound | maximal emission reported by White et al., JACS (1966) 88: 2015 |
| --- | --- |
| amino-luciferin [reference compound] | 605 nm |

tested on: Firefly luciferase; test: Luciferase assay: emission spectrum of purified luciferase with luciferin substrates; conditions: substrate of purified firefly luciferase, pH 7.8, Spex Fluoromax-3

| Compound | maximal emission |
| --- | --- |
| CC(C)Nc1ccc2nc(C3=N[C@@H](C(=O)O)CS3)sc2c1 [isopropylamino, D-2-(6′-isopropylamino-2′-benzothiazolyl)-Δ^2-thiazoline-4-carboxylic acid] | 607 nm |
| CCNc1ccc2nc(C3=N[C@@H](C(=O)O)CS3)sc2c1 [ethylamino, D-2-(6′-ethylamino-2′-benzothiazolyl)-Δ^2-thiazoline-4-carboxylic acid] | 607 nm |
| CN(C)c1ccc2nc(C3=N[C@@H](C(=O)O)CS3)sc2c1 [dimethylamino-luciferin (1a), D-2-(6′-dimethylamino-2′-benzothiazolyl)-Δ^2-thiazoline-4-carboxylic acid] | 624 nm |
| CCCCNc1ccc2nc(C3=N[C@@H](C(=O)O)CS3)sc2c1 [n-butylamino, D-2-(6′-butylamino-2′-benzothiazolyl)-Δ^2-thiazoline-4-carboxylic acid] | 607 nm |
| O=C(O)[C@H]1CSC(c2nc3ccc(O)cc3s2)=N1 [D-luciferin, reference compound] | 555 nm |
| amino-luciferin [reference compound] | 593 nm |
